From publication PMC9081329, “Pharmacokinetics, Mass Balance, Excretion, and Tissue Distribution of Plasmalogen Precursor PPI-1011” (Frontiers in Cell and Developmental Biology, 2022)
Where “and” joins values, the source holds several entries; their conditions need not be identical. Identical values can stand only once.

Columns and labels:
[1] = Plasma pharmacokinetics of total radioactivity after a single oral dose of [^14C]PPI-1011 100 mg/kg; assay type: in vivo, Sprague-Dawley rats; conditions: single oral 100 mg/kg; for AUCInf / AUClast / Cmax / MRTInf / t1/2 / tmax / AUC Extr: plasma total radioactivity
Protocol: The pharmacokinetics of [^14C]PPI-1011 were performed in four rats that were surgically implanted with femoral artery catheters (FAC) for blood collection at least 2 days before dosing began. [^14C]PPI-1011 was administered as a single oral dose at 100 mg/kg (200 μCi/kg). Blood samples were collected in EDTA tubes and centrifuged to obtain plasma at 1, 3, 6, 12, 18, 24, 48, and 72 h after drug administration. Duplicate aliquots of plasma (∼25 μl or higher) were transferred to liquid scintillation vials and the weights of sample aliquots were recorded. Aliquots were mixed with Ultima Gold (5 ml) as scintillation fluid and total radioactivity was determined by liquid scintillation counting (LSC) and used to calculate the total radioactive concentration.
The PK calculations of total radioactivity in plasma were analyzed with non-compartmental analyses using Phoenix® WinNonlin® software (version 8.1). Statistical calculations for the other studies were limited to simple parameters such as means or averages, standard deviations (sd), and percentages (%). The amount of compound equivalents (Eq) in samples was calculated as concentrations expressed in μg Eq/g. Dose, MCID™ generated tissue concentrations, pharmacokinetic, and radioanalysis data were compiled using Microsoft Excel for Microsoft 365, Version 2010.

[2] = Mass balance and excretion study, single oral dose 100 mg/kg; assay type: in vivo, Sprague-Dawley rats
Protocol: Four male rats were administered a single oral dose of [^14C]PPI-1011 at 100 mg/kg (200 μCi/kg). Feces, urine, and the cage rinse samples were collected at pre-determined times up to 168 h post-dose (HPD). The expired air was collected using a carbon dioxide trapping apparatus equipped with airflow apparatus. Expired [^14C]CO2 was collected for two of the four dosed animals for 24 h after the dose in a solution of ethanolamine:2-methoxyethanol (1:3, v/v) in two traps. Rats were sacrificed by overdose of CO2 and each cage was rinsed with 25% ethanol in water (>50 ml) at the end of the study. The cage rinse sample and the expired [^14C]CO2 was stored at 4°C.
Diluted dose solutions, plasma, urine, and cage rinse were analyzed in duplicate by LSC, as described above. The expired CO2 was analyzed the same day it was collected by mixing a 1 ml aliquot of the carbon dioxide absorbents with 5 ml of Hionic-Fluor for radioactivity concentrations with LSC. Feces samples were homogenized in 5-fold volume of purified water then duplicate fecal homogenate aliquots were transferred to Combusto Cones and combusted with a Sample Oxidizer (Model A307, Perkin Elmer) equipped with an Oximate 80 Robotic Automatic Samples. The [^14C]CO2 generated by the combustion was also collected in Carbo Sorb E and radioactivity was determined with PermaFluor as the scintillant using a Tri-Carb LSC.

**Q.** Which “Mean total radioactivity in plasma” value ([1]; 1 h) does the source give for `CC/C=C\C/C=C\C/C=C\C/C=C\C/C=C\C/C=C\CCC(=O)O[C@H](CO[14CH2]CCCCCCCCCCCCCCC)COC(=O)CCCCC1CCSS1` (stereo partly drawn) [[^14C]PPI-1011] here?
**A.** approximately 500 ng Eq/g

**Q.** And the “Mean total radioactivity in plasma” value ([1]; 6 h)?
**A.** ~27,000 ng Eq/g

**Q.** And the “Mean total radioactivity in plasma” value ([1]; 72 h)?
**A.** ~4,000 ng Eq/g

**Q.** What about the AUCInf ([1]; Mean of 4 rats) of the same compound?
**A.** 867,000 h*ng/ml

**Q.** What about the AUClast ([1]; Mean of 4 rats) of the same compound?
**A.** 608,000 h*ng/ml

**Q.** What about the Cmax ([1]; Mean of 4 rats) of the same compound?
**A.** 27,900 ng/ml

**Q.** And the MRTInf ([1]; Mean of 4 rats)?
**A.** 55 h

**Q.** What about the t1/2 ([1]; Mean of 4 rats) of the same compound?
**A.** 40 h

**Q.** What about the tmax ([1]; Mean of 4 rats) of the same compound?
**A.** 7.5 h

**Q.** And the “AUC Extr” value ([1]; Rat 1)?
**A.** 6.8%

**Q.** And the AUCInf ([1]; Rat 1)?
**A.** 753,000 h*ng/ml

**Q.** And the AUClast ([1]; Rat 1)?
**A.** 702,000 h*ng/ml

**Q.** And the Cmax ([1]; Rat 1)?
**A.** 30,000 ng/ml

**Q.** What about the MRTInf ([1]; Rat 1) of the same compound?
**A.** 27 h

**Q.** What about the t1/2 ([1]; Rat 1) of the same compound?
**A.** 18 h

**Q.** What about the tmax ([1]; Rat 1) of the same compound?
**A.** 6.0 h

**Q.** And the “AUC Extr” value ([1]; Rat 2)?
**A.** 31%

**Q.** And the AUCInf ([1]; Rat 2)?
**A.** 953,000 h*ng/ml

**Q.** What about the AUClast ([1]; Rat 2) of the same compound?
**A.** 659,000 h*ng/ml

**Q.** What about the Cmax ([1]; Rat 2) of the same compound?
**A.** 21,500 ng/ml

**Q.** What about the MRTInf ([1]; Rat 2) of the same compound?
**A.** 61 h

**Q.** And the t1/2 ([1]; Rat 2)?
**A.** 42 h

**Q.** And the tmax ([1]; Rat 2)?
**A.** 6.0 h

**Q.** And the “AUC Extr” value ([1]; Rat 3)?
**A.** 6.5%

**Q.** And the AUCInf ([1]; Rat 3)?
**A.** 542,000 h*ng/ml

**Q.** What about the AUClast ([1]; Rat 3) of the same compound?
**A.** 507,000 h*ng/ml

**Q.** And the Cmax ([1]; Rat 3)?
**A.** 42,500 ng/ml

**Q.** What about the MRTInf ([1]; Rat 3) of the same compound?
**A.** 23 h

**Q.** And the t1/2 ([1]; Rat 3)?
**A.** 19 h

**Q.** And the tmax ([1]; Rat 3)?
**A.** 6.0 h

**Q.** What about the “AUC Extr” value ([1]; Rat 4) of the same compound?
**A.** 54%

**Q.** And the AUCInf ([1]; Rat 4)?
**A.** 1,220,000 h*ng/ml

**Q.** And the AUClast ([1]; Rat 4)?
**A.** 565,000 h*ng/ml

**Q.** And the Cmax ([1]; Rat 4)?
**A.** 17,400 ng/ml

**Q.** And the MRTInf ([1]; Rat 4)?
**A.** 110 h

**Q.** What about the t1/2 ([1]; Rat 4) of the same compound?
**A.** 80 h

**Q.** What about the tmax ([1]; Rat 4) of the same compound?
**A.** 12 h

**Q.** What about the “Dose recovered in feces” value ([2]; 168 h collection period, single oral 100 mg/kg) of the same compound?
**A.** 42.51 ± 7.16%

**Q.** What about the “Total dose excreted in urine and feces” value ([2]; between 24 and 48 h) of the same compound?
**A.** approximately 6%

**Q.** And the “Additional excretion in urine and feces” value ([2]; between 48 and 168 h)?
**A.** < 3%

**Q.** And the “Compound-associated radioactivity absorbed by the body” value ([2]; single oral 100 mg/kg)?
**A.** over 50%

**Q.** And the “Dose found in urine” value ([2]; up to day seven, single oral 100 mg/kg, 100 mg/kg)?
**A.** 2.40 ± 0.59% and < 2.5%

**Q.** What about the “Dosed radioactivity recovered in urine and feces including cage rinses” value ([2]; within 168 h collection period, single oral 100 mg/kg) of the same compound?
**A.** 45.10 ± 7.34%

**Q.** And the “Compound-associated radioactivity excreted in the feces” value ([2]; within the first 24 h)?
**A.** approximately 40%

**Q.** And the “Compound-associated radioactivity excreted in the urine” value ([2]; within the first 24 h)?
**A.** ~2.5%
